Assay results taken from patent US20050209278A1, “Piperidinyl- and piperazinyl-sulfonylmethyl hydroxamic acids and their use as protease inhibitors” (priority 2002, published 2005).
Counter-ions that a name gives are not always drawn.

What was measured:
MMP-9 = molecular target: T1, MMP-9 (Homo sapiens, UniProt P14780); experiment: In vitro MMP inhibition, IC50 determination (fluorogenic substrate I); type: biochemical; conditions: values in parenthesis; 4 μM substrate I; room temperature
T1 construct: made in house; host or cells: MMP-9-transfected HT1080 cells (spent media)
Experimental: Several hydroxamic acids and salts thereof were analyzed in in vitro assays to determine their ability to inhibit the MMP cleavage of peptide substrates. […] and IC50 constants were calculated from the assayed hydroxamic acid-MMP interactions. Human recombinant MMP-1, MMP-2, MMP-9, MMP-13, and MMP-14 were used in this assay. All enzymes were prepared in Assignee's laboratories following usual laboratory procedures. Protocols for the preparation and use of these enzymes are available in the scientific literature. See, e.g., Enzyme Nomenclature (Academic Press, San Diego, Calif., 1992) (and the citations therein). See also, Freije et al., “Molecular cloning and expression of collagenase-3, a novel human matrix metalloproteinase produced by breast carcinomas,” J Biol. Chem., 269(24), 16766-16773 (1994). The MMP-9 proenzyme was purified by gelatin Sepharose chromatography from spent media of MMP-9-transfected HT1080 cells provided by Dr. Howard Welgus of Washington University (St. Louis, Mo.). All MMPs were activated using 4-aminophenylmercuric acetate (“APMA”, Sigma Chemical, St. Louis, Mo.) or trypsin. MMP-9 also was activated using human recombinant MMP-3 (purified in Assignee's laboratory following standard cloning and purification techniques). […] Substrate (I) was purchased from Baychem (Redwood City, Calif.), and substrate II was prepared Assignee's laboratory. Substrate I was used in the IC50 determination assays, while substrate II was used in the Ki determination assays. In the absence of MMP inhibitory activity, either substrate is cleaved at the Gly-Leu peptide bond. […] The stock solutions of the assayed hydroxamic acids (or salts thereof) were prepared in 1% dimethyl sulfoxide (DMSO). […] The experiment controls contained the same amount of Buffer A/DMSO as the assayed sample, but contained no hydroxamic acid (or salt thereof). The assays from which the IC50 determinations were made were performed as follows. […] Louis, Mo.). The assayed hydroxamic acid samples were incubated in MicrofluorTM White Plates (Dynatech, Chantilly, Va.) and analyzed on a Perkin Elmer […] plate reader (Norwalk, Conn.). The excitation wavelength was 328 nm, and the emission wavelength-415 nm. […] As stated in the previous paragraph, samples containing varying concentrations of the same assayed hydroxamic acid were prepared. Inhibition was measured as a reduction in fluorescent intensity as a function of MMP inhibitor concentration. […] All values in Table 2 are given in nM units. The IC50 measurements are in parenthesis.

MMP-1 = molecular target: T2, MMP-1 (Homo sapiens, UniProt P03956); experiment: as above; type: biochemical; conditions: values in parenthesis; 4 μM substrate I; room temperature
T2 construct: made in house; host or cells: MMP-1-transfected HT-1080 cells (spent media)
T2 sequence (P03956 100-469): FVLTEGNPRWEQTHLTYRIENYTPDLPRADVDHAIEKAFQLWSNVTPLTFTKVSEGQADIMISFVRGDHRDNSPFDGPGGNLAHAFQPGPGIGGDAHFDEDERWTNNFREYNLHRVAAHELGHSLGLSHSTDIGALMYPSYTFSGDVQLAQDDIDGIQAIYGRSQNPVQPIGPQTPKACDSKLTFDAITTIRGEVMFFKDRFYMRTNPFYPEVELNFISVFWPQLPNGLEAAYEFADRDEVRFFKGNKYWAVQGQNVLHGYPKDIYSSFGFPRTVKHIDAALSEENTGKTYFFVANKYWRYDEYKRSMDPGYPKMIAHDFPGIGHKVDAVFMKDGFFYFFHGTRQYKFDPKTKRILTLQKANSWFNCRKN
Experimental: Several hydroxamic acids and salts thereof were analyzed in in vitro assays to determine their ability to inhibit the MMP cleavage of peptide substrates. […] and IC50 constants were calculated from the assayed hydroxamic acid-MMP interactions. Human recombinant MMP-1, MMP-2, MMP-9, MMP-13, and MMP-14 were used in this assay. All enzymes were prepared in Assignee's laboratories following usual laboratory procedures. Protocols for the preparation and use of these enzymes are available in the scientific literature. See, e.g., Enzyme Nomenclature (Academic Press, San Diego, Calif., 1992) (and the citations therein). See also, Freije et al., “Molecular cloning and expression of collagenase-3, a novel human matrix metalloproteinase produced by breast carcinomas,” J Biol. Chem., 269(24), 16766-16773 (1994). The MMP-1 proenzyme was purified from the spent media of MMP-1-transfected HT-1080 cells provided by Dr. Harold Welgus of Washington University (St. Louis, Mo.). The protein was purified on a zinc chelating column. All MMPs were activated using 4-aminophenylmercuric acetate (“APMA”, Sigma Chemical, St. Louis, Mo.) or trypsin. MMP-9 also was activated using human recombinant MMP-3 (purified in Assignee's laboratory following standard cloning and purification techniques). […] Substrate (I) was purchased from Baychem (Redwood City, Calif.), and substrate II was prepared Assignee's laboratory. Substrate I was used in the IC50 determination assays, while substrate II was used in the Ki determination assays. In the absence of MMP inhibitory activity, either substrate is cleaved at the Gly-Leu peptide bond. […] The stock solutions of the assayed hydroxamic acids (or salts thereof) were prepared in 1% dimethyl sulfoxide (DMSO). […] The experiment controls contained the same amount of Buffer A/DMSO as the assayed sample, but contained no hydroxamic acid (or salt thereof). The assays from which the IC50 determinations were made were performed as follows. […] Louis, Mo.). The assayed hydroxamic acid samples were incubated in MicrofluorTM White Plates (Dynatech, Chantilly, Va.) and analyzed on a Perkin Elmer […] plate reader (Norwalk, Conn.). The excitation wavelength was 328 nm, and the emission wavelength-415 nm. […] As stated in the previous paragraph, samples containing varying concentrations of the same assayed hydroxamic acid were prepared. Inhibition was measured as a reduction in fluorescent intensity as a function of MMP inhibitor concentration. […] All values in Table 2 are given in nM units. The IC50 measurements are in parenthesis.

T1 sequence (P14780 107-707 limits assumed): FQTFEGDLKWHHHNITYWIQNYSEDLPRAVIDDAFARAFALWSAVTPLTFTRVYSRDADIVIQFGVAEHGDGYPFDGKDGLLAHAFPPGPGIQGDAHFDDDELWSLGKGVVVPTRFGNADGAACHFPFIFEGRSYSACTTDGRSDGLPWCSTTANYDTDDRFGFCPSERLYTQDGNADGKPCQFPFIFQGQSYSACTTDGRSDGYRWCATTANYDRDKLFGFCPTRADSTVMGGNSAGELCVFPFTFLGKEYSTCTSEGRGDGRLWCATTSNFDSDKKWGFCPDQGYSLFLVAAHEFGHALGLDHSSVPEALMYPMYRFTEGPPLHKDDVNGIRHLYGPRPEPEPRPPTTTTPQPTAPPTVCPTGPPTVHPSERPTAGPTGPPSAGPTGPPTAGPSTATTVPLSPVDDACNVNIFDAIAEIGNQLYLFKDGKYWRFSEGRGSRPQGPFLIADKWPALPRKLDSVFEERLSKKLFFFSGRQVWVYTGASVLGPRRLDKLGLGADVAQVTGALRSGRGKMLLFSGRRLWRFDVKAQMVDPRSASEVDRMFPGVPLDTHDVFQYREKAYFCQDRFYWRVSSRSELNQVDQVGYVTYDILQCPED

Compound	IC50 (MMP-9)	IC50 (MMP-1)
CCCCc1ccc(N2CCN(S(=O)(=O)C3(C(=O)NO)CCN(CCOC)CC3)CC2)cc1 [Example 5, 4-{[4-(4-butylphenyl)piperazin-1-yl]sulfonyl}-N-hydroxy-1-(2-methoxyethyl)piperidine-4-carboxamide Dihydrochloride]	< 0.1 nM	> 10000 nM
CCCCOc1ccc(N2CCN(S(=O)(=O)C3(C(=O)NO)CCN(CCOC)CC3)CC2)cc1F [Example 11, 4-[[4-(4-butoxy-3-fluorophenyl)-1-piperazinyl]sulfonyl]-N-hydroxy-1-(2-methoxyethyl)-4-piperidinecarboxamide, Dihydrochloride]	2.3 nM	> 10000 nM
CCCCCc1ccc(C2CCN(S(=O)(=O)C3(C(=O)NO)CCN(CCOC)CC3)CC2)cc1 [Example 15, N-hydroxy-1-(2-methoxyethyl)-4-{[4-(4-pentylpheyl)piperidin-1-yl]sulfonyl}piperidine-4-carboxamide Hydrochloride]	0.3 nM	> 10000 nM

More lines, in order of falling IC50 (MMP-9), values ahead:

IC50 (MMP-9)	IC50 (MMP-1)	Compound
0.3 nM	> 10000 nM	O=C(NO)C1(S(=O)(=O)N2CCN(c3ccc(OCC4CC4)c(F)c3)CC2)CCN(C2CC2)CC1 [Example 10, 1-cyclopropyl-4-[[4-[4-(cyclopropylmethoxy)-3-fluorophenyl]-1-piperazinyl]sulfonyl]-N-hydroxy-4-piperidinecarboxamide, dihydrochloride]
0.2 nM	> 10000 nM	CCCCCc1ccc(N2CCN(S(=O)(=O)C3(C(=O)NO)CCN(CCOC)CC3)CC2)cc1 [Example 6, N-Hydroxy-1-(2-methoxyethyl)-4-{[4-(4-pentylphenyl)piperazin-1-yl]sulfonyl}piperidine-4-carboxamide Dihydrochloride]
